Legend:
NCI-H2228 cell line = assay: CellTiter-Glo cell proliferation inhibition on NCI-H2228 cell line; type: cell-based; details: Homo sapiens, NCI-H2228, 96 h, NCI-H2228 cells, 5000 cells/well, 4 days drug treatment
In short: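 NCI-H2228 cells, 5000/well in RPMI-1640 + 10% FBS, treated with compounds 2 h after seeding (0.5% DMSO final) for 4 days at 37° C. Viability by CellTiter-Glo luminescence; inhibition relative to DMSO control, IC50 from curve fit.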

L1196M mutant ALK kinase = target: T1, L1196M mutant ALK kinase (Homo sapiens, UniProt Q9UM73, L1196M); assay: HTRF KinEASE-TK assay, inhibitory activity on L1196M mutant ALK kinase; type: biochemical; details: L1196M mutant ALK 1 ng/μl, substrate 1 μM, ATP 5 μM, 30° C. 35 minutes, read-out: Inhibition on ALK kinases (L1196M mutant), IC50
T1 construct: purchased Sino-US Crown Bioscience, Inc. batch number ALKm_20110923
T1 sequence (Q9UM73 19-1620 L1196M): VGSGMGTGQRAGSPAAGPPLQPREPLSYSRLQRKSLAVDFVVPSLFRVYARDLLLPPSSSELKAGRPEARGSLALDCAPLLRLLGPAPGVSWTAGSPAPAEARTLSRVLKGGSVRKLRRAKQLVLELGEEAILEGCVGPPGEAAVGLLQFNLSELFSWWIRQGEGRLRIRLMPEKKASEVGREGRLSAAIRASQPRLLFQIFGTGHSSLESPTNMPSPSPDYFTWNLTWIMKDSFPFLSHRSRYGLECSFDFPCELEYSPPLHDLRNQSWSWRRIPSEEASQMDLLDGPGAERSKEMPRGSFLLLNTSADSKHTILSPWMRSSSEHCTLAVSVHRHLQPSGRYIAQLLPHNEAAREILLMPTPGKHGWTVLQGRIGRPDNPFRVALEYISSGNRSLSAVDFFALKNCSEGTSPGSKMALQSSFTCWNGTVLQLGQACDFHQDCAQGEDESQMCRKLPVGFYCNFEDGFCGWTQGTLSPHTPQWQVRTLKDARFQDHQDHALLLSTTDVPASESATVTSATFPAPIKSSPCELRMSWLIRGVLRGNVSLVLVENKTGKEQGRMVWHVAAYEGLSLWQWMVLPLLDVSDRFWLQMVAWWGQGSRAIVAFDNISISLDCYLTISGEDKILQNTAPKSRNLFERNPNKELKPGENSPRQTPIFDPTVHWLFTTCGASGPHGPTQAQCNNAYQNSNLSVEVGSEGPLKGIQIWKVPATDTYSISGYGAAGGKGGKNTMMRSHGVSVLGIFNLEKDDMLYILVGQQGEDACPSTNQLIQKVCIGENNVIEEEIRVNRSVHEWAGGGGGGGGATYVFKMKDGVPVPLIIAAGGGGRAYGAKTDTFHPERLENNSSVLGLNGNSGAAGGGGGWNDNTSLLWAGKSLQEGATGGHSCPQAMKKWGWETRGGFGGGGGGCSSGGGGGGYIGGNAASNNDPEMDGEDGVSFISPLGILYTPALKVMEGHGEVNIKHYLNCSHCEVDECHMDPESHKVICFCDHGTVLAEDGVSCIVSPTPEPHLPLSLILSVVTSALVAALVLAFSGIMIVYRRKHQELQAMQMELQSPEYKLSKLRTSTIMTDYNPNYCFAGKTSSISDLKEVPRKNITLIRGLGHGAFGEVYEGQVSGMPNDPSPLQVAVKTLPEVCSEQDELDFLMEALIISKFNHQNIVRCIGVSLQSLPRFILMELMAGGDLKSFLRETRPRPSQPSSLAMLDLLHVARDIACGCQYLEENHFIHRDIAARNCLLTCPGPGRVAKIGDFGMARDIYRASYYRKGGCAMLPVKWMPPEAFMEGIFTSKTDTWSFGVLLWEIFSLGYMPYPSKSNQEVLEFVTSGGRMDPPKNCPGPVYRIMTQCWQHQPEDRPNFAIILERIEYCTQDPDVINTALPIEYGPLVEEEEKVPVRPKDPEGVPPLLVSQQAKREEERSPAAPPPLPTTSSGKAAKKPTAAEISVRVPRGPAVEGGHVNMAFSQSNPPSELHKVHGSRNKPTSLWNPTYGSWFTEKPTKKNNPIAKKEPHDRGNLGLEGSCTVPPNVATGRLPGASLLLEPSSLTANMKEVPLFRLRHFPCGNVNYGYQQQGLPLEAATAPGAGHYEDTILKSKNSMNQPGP
In short: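 HTRF TK assay: mutant kinase 1 ng/μl, substrate 1 μM, ATP 5 μM, 5 mM MgCl2, 1 mM DTT, 1% DMSO, 35 min at 30 °C. 665/615 ratio read; inhibition normalised to no-compound and 10.4 μM LDK-378 controls; IC50 from curve fit.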

Row | SMILES | IC50 (NCI-H2228 cell line) [nM] | IC50 (L1196M mutant ALK kinase) [nM]
1 | Cc1cc(Nc2ncc(Cl)c(Nc3cn(C)nc3S(=O)(=O)C(C)C)n2)c(OC(C)C)cc1C1CNC1 [Final product 4] | 288 | 13
2 | Cc1cc(Nc2ncc(Cl)c(Nc3cn(C4CC4)nc3S(=O)(=O)C(C)C)n2)c(OC(C)C)cc1C1CCNCC1 [Final product 5] | 248 | 12
3 | Cc1cc(Nc2ncc(Cl)c(Nc3cn(C)nc3S(=O)(=O)CC(C)C)n2)c(OC(C)C)cc1C1CCNCC1 [Final product 6] | 193 | 7
4 | CCC(C)S(=O)(=O)c1nn(C)cc1Nc1nc(Nc2cc(C)c(C3CCNCC3)cc2OC(C)C)ncc1Cl (stereo not shown) [Final product 7] | 224 | 12
5 | Cc1cc(Nc2ncc(Cl)c(Nc3cn(C)nc3S(=O)(=O)C(C)C)n2)c(OC(CF)CF)cc1C1CCNCC1 [Final product 8] | 562 | 10
6 | CC(C)S(=O)(=O)c1nn(C)cc1Nc1nc(Nc2ccc(C3CCNCC3)cc2OC(F)(F)F)ncc1Cl [Final product 9] | 652 | 35
7 | Cc1cc(Nc2ncc(Cl)c(Nc3cn(C)nc3S(=O)(=O)C(C)C)n2)c(OC(F)(F)F)cc1C1CCNCC1 [Final product 10] | 188 | 13
8 | Cc1cc(Nc2ncc(Cl)c(Nc3cn(C)nc3S(=O)(=O)C(C)C)n2)c(C(F)(F)F)cc1C1CCNCC1 [Final product 11] | 641 | 39
9 | Cc1cc(Nc2ncc(Cl)c(Nc3cn(C)nc3S(=O)(=O)C(C)C)n2)c(OCC2CC2)cc1C1CCNCC1 [Final product 12] | 262 | 17
10 | CC(C)S(=O)(=O)c1nn(C)cc1Nc1nc(Nc2ccc(C3CCNCC3)cc2OC2CC2)ncc1Cl [Final product 13] | 58 | 7
11 | CC(C)S(=O)(=O)c1nn(C)cc1Nc1nc(Nc2ccc(C3=CCNCC3)cc2OC2CC2)ncc1Cl [Final product 14] | 168 | 6
12 | CC(C)S(=O)(=O)c1nn(C)cc1Nc1nc(Nc2ccc(C3CCNC3)cc2OC2CC2)ncc1Cl (stereo not shown) [Final product 15] | 48 | 5
13 | CC(C)S(=O)(=O)c1nn(C2CC2)cc1Nc1nc(Nc2ccc(C3CCNCC3)cc2OC2CC2)ncc1Cl [Final product 16] | 39 | 7
14 | CC(C)CS(=O)(=O)c1nn(C)cc1Nc1nc(Nc2ccc(C3CCNCC3)cc2OC2CC2)ncc1Cl [Final product 17] | 278 | 13
15 | CC(C)CS(=O)(=O)c1nn(C)cc1Nc1nc(Nc2ccc(C3CCNC3)cc2OC2CC2)ncc1Cl (stereo not shown) [Final product 18] | 157 | 4
16 | CC(C)S(=O)(=O)c1nn(C)cc1Nc1nc(Nc2cc(F)c(C3CCNC3)cc2OC2CC2)ncc1Cl (stereo not shown) [Final product 20] | 384 | 34
17 | CC(C)S(=O)(=O)c1nn(C2CC2)cc1Nc1nc(Nc2cc(F)c(C3CCNCC3)cc2OC2CC2)ncc1Cl [Final product 21] | 62 | 2
18 | CC(C)S(=O)(=O)c1nn(C)cc1Nc1nc(Nc2cc(Cl)c(C3CCNCC3)cc2OC2CC2)ncc1Cl [Final product 22] | 115 | 12
19 | CC(C)S(=O)(=O)c1nn(C2CC2)cc1Nc1nc(Nc2cc(Cl)c(C3CCNCC3)cc2OC2CC2)ncc1Cl [Final product 23] | 107 | 8
20 | Cc1cc(Nc2ncc(Cl)c(Nc3cn(C)nc3S(=O)(=O)C(C)C)n2)c(OC2CC2)cc1C1CCNCC1 [Final product 24] | 122 | 4
21 | Cc1cc(Nc2ncc(Cl)c(Nc3cn(C)nc3S(=O)(=O)C(C)C)n2)c(OC2CC2)cc1C1=CCNCC1 [Final product 25] | 190 | 5
22 | Cc1cc(Nc2ncc(Cl)c(Nc3cn(C)nc3S(=O)(=O)C(C)C)n2)c(OC2CC2)cc1C1CCNC1 (stereo not shown) [Final product 26] | 217 | 6
23 | Cc1cc(Nc2ncc(Cl)c(Nc3cn(C4CC4)nc3S(=O)(=O)C(C)C)n2)c(OC2CC2)cc1C1CCNCC1 [Final product 27] | 168 | 6
24 | Cc1cc(Nc2ncc(Cl)c(Nc3cn(C)nc3S(=O)(=O)CC(C)C)n2)c(OC2CC2)cc1C1CCNCC1 [Final product 28] | 134 | 15
25 | CC(C)S(=O)(=O)c1nn(C)cc1Nc1nc(Nc2cc(C#N)c(C3CCNCC3)cc2OC2CC2)ncc1Cl [Final product 29] | 159 | 7

Row | SMILES | IC50 (NCI-H2228 cell line) [nM] | IC50 (L1196M mutant ALK kinase) [nM]
26 | CC(C)S(=O)(=O)c1nn(C)cc1Nc1nc(Nc2ccc(C3CCN(C)CC3)cc2OC(F)(F)F)ncc1Cl [Final product 30] | 93 | 18
27 | Cc1cc(Nc2ncc(Cl)c(Nc3cn(C)nc3S(=O)(=O)C(C)C)n2)c(OC(F)(F)F)cc1C1CCN(C)CC1 [Final product 31] | 374 | 10
28 | Cc1cc(Nc2ncc(Cl)c(Nc3cn(C)nc3S(=O)(=O)C(C)C)n2)c(C(F)(F)F)cc1C1CCN(C)CC1 [Final product 32] | 1080 | 49
29 | Cc1cc(Nc2ncc(Cl)c(Nc3cn(C)nc3S(=O)(=O)C(C)C)n2)c(OC(CF)CF)cc1C1CCN(C)CC1 [Final product 34] | 403 | 23
30 | Cc1cc(Nc2ncc(Cl)c(Nc3cn(C)nc3S(=O)(=O)CC(C)C)n2)c(OC(C)C)cc1C1CN(C)C1 [Final product 36] | 326 | 15
31 | Cc1cc(Nc2ncc(Cl)c(Nc3cn(C)nc3S(=O)(=O)C(C)C)n2)c(OC(C)C)cc1C1CCN(C)C1 (stereo not shown) [Final product 37] | 131 | 4
32 | CC(C)S(=O)(=O)c1nn(C2CC2)cc1Nc1nc(Nc2ccc(C3CCN(C)CC3)cc2OC(F)(F)F)ncc1Cl [Final product 38] | 146 | 18
33 | Cc1cc(Nc2ncc(Cl)c(Nc3cn(C)nc3S(=O)(=O)C(C)C)n2)c(OCC2CC2)cc1C1CCN(C)CC1 [Final product 39] | 226 | 48
34 | CC(C)S(=O)(=O)c1nn(C)cc1Nc1nc(Nc2ccc(C3CCN(C)C3)cc2OC2CC2)ncc1Cl (stereo not shown) [Final product 41] | 33 | 3
35 | CC(C)S(=O)(=O)c1nn(C2CC2)cc1Nc1nc(Nc2ccc(C3CCN(C)CC3)cc2OC2CC2)ncc1Cl [Final product 42] | 29 | 3
36 | CC(C)S(=O)(=O)c1nn(C)cc1Nc1nc(Nc2cc(F)c(C3CCN(C)C3)cc2OC2CC2)ncc1Cl (stereo not shown) [Final product 45] | 135 | 10
37 | CC(C)S(=O)(=O)c1nn(C2CC2)cc1Nc1nc(Nc2cc(Cl)c(C3CCN(C)CC3)cc2OC2CC2)ncc1Cl [Final product 48] | 115 | 5
38 | CC(C)S(=O)(=O)c1nn(C)cc1Nc1nc(Nc2cc(C#N)c(C3CCN(C)CC3)cc2OC2CC2)ncc1Cl [Final product 49] | 165 | 13
39 | Cc1cc(Nc2ncc(Cl)c(Nc3cn(C)nc3S(=O)(=O)C(C)C)n2)c(OC2CC2)cc1C1=CCN(C)CC1 [Final product 50] | 86 | 7
40 | Cc1cc(Nc2ncc(Cl)c(Nc3cn(C)nc3S(=O)(=O)C(C)C)n2)c(OC2CC2)cc1C1CCOCC1 [Final product 107] | 174 | 19
41 | Cc1cc(Nc2ncc(Cl)c(Nc3cn(C)nc3S(=O)(=O)C(C)C)n2)c(OC2CC2)cc1OC1CCN(C)CC1 [Final product 111] | 188 | 7
42 | CCN1CCC(c2cc(OC(C)C)c(Nc3ncc(Cl)c(Nc4cn(C)nc4S(=O)(=O)C(C)C)n3)cc2C)CC1 [Final product 118] | 101 | 10
43 | Cc1cc(Nc2ncc(Cl)c(Nc3cn(C)nc3S(=O)(=O)C(C)C)n2)c(OC(C)C)cc1C1CCN(C(C)C)CC1 [Final product 126] | 142 | 12
44 | Cc1cc(Nc2ncc(Cl)c(Nc3cn(C)nc3S(=O)(=O)CC(C)C)n2)c(OC2CC2)cc1C1CCN(C(C)C)CC1 [Final product 127] | 142 | 12
45 | CCOc1cc(C2CCN(CCO)CC2)c(C)cc1Nc1ncc(Cl)c(Nc2cn(C)nc2S(=O)(=O)C(C)C)n1 [Final product 135] | 33 | 7
46 | Cc1cc(Nc2ncc(Cl)c(Nc3cn(C)nc3S(=O)(=O)CC(C)C)n2)c(OC2CC2)cc1C1CCN(CCO)CC1 [Final product 137] | 103 | 11
47 | Cc1cc(Nc2ncc(Cl)c(Nc3cn(C)nc3S(=O)(=O)C(C)C)n2)c(OC2CCC2)cc1C1CCN(CCO)CC1 [Final product 138] | 60 | 8
48 | Cc1cc(Nc2ncc(Cl)c(Nc3cn(C)nc3S(=O)(=O)C(C)C)n2)c(OC(C)C)cc1C1CCN(C(C)(C)CO)CC1 [Final product 152] | 86 | 9
49 | Cc1cc(Nc2ncc(Cl)c(Nc3cn(C)nc3S(=O)(=O)C(C)C)n2)c(OC2CC2)cc1C1CCN(C2CC2)CC1 [Final product 157] | 142 | 11
50 | Cc1cc(Nc2ncc(Cl)c(Nc3cn(C)nc3S(=O)(=O)C(C)C)n2)c(OC2CC2)cc1C1CCN(C=O)CC1 [Final product 159, 4-(4-(5-chloro-4-(3-(isopropylsulfonyl)-1-methyl-1H-pyrazol-4-amino)pyrimidin-2-amino)-5-cyclopropoxy-2-methylphenyl)piperidin-1-formaldehyde] | 43 | 9

Reference: patent US10023593B2, “ALK kinase inhibitor, and preparation method and uses thereof” (BEIJING PEARL BIOTECHNOLOGY LIMITED LIABILITY COMPANY, priority 2014, dated 2018)
